This note sets out measurements from patent US20240246937A1 (MERCK SHARP & DOHME LLC, priority 2021, published 2024).

In general, EC50 refers to the midpoint of the concentration-response curve.

This assay concerns the target recombinant IL4I1 (Homo sapiens (Human), UniProt Q96RQ9). The assay can be described thus: IL4I1 Enzymatic Assay (Amplex Red/HRP coupled fluorescence detection of H2O2). The assay is classed as biochemical. As to conditions: 240 min; recombinant IL4I1, four-hour pre-incubation with compound. An outline of the steps: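 Recombinant human IL4I1 (1 nM final) pre-incubated 4 h with compound at ambient temperature in 50 mM Hepes pH 7.0, 0.005% Tween20. Started with 1 mM each Phe/Tyr/Trp plus Amplex Red/HRP; H2O2-derived resorufin fluorescence read after 120 min; EC50 from ten-point 1:3 titration, four-parameter fit.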

Sequence of recombinant IL4I1 (Q96RQ9 22-567): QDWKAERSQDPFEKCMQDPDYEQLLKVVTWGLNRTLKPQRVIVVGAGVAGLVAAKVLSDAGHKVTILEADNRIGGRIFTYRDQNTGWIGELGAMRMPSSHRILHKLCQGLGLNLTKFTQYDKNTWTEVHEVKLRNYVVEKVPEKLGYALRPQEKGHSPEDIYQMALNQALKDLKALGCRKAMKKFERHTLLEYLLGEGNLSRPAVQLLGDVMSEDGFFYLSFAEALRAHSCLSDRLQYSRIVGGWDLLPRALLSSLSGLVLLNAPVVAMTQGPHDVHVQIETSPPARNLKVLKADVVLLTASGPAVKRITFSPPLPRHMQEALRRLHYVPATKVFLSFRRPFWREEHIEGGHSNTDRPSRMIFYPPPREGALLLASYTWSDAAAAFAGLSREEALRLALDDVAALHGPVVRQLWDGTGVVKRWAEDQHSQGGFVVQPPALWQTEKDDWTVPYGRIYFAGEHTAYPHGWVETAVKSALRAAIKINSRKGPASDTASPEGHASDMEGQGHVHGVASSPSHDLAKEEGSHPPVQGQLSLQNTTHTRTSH

Turning to `COCC(C)(C)N1CCN(Cc2nnc(-c3ccccc3)s2)C(=O)C1=O` [Example 299, 1-(1-methoxy-2-methylpropan-2-yl)-4-((5-phenyl-1,3,4-thiadiazol-2-yl)methyl)piperazine-2,3-dione], the EC50 was determined as 56 nM. Regarding `CC(C)(c1cccnc1)N1CCN(Cc2nnc(-c3ccccc3)s2)C(=O)C1=O` [Example 300, 1-((5-phenyl-1,3,4-thiadiazol-2-yl)methyl)-4-(2-(pyridin-3-yl)propan-2-yl)piperazine-2,3-dione], the EC50 was found to be 86 nM. For the compound `O=C1C(=O)N(C23CCC(CC2=O)C3)CCN1Cc1nnc(-c2ccccc2)s1` (stereo not shown) [Example 301, 1-(2-oxobicyclo[2.2.1]heptan-1-yl)-4-((5-phenyl-1,3,4-thiadiazol-2-yl)methyl)piperazine-2,3-dione], the EC50 amounted to 67 nM.

For `CC1(N2CCN(Cc3nnc(-c4ccccc4)s3)C(=O)C2=O)COC1` [Example 302, 1-(3-methyloxetan-3-yl)-4-((5-phenyl-1,3,4-thiadiazol-2-yl)methyl)piperazine-2,3-dione], the EC50 turned out to be 69 nM. In the case of `CC1(N2CCN(Cc3nnc(-c4ccccc4)s3)C(=O)C2=O)CC1` [Example 303, 1-(1-methylcyclopropyl)-4-((5-phenyl-1,3,4-thiadiazol-2-yl)methyl)piperazine-2,3-dione] it was 28 nM; in that of `O=C1C(=O)N(C2(c3ccncc3)CC2)CCN1Cc1nnc(-c2ccccc2)s1` [Example 304, 1-((5-phenyl-1,3,4-thiadiazol-2-yl)methyl)-4-(1-(pyridin-4-yl)cyclopropyl)piperazine-2,3-dione], 98 nM. In the case of `O=C1C(=O)N(C2(CF)CC2)CCN1Cc1nnc(-c2ccccc2)s1` [Example 305, 1-(1-(fluoromethyl)cyclopropyl)-4-((5-phenyl-1,3,4-thiadiazol-2-yl)methyl)piperazine-2,3-dione] it was 32 nM; in that of `CC1(N2CCN(Cc3nnc(-c4ccccc4)s3)C(=O)C2=O)CCCCC1` [Example 306, 1-(1-methylcyclohexyl)-4-((5-phenyl-1,3,4-thiadiazol-2-yl)methyl)piperazine-2,3-dione], 27 nM. In the case of `CC(C)(C)N1CCN(Cc2nnc(-c3ccccc3)s2)C(=O)C1=O` [Example 307, 1-(tert-butyl)-4-((5-phenyl-1,3,4-thiadiazol-2-yl)methyl)piperazine-2,3-dione] it was 20 nM; in that of `N#CC1(N2CCN(Cc3nnc(-c4ccccc4)s3)C(=O)C2=O)CC1` [Example 308, 1-(2,3-dioxo-4-((5-phenyl-1,3,4-thiadiazol-2-yl)methyl)piperazin-1-yl)cyclopropane-1-carbonitrile], 35 nM; in that of `O=C1C(=O)N(C2CCCC2)CCN1Cc1nnc(N2CCCCC2)s1` [Example 309, 1-cyclopentyl-4-((5-(piperidin-1-yl)-1,3,4-thiadiazol-2-yl)methyl)piperazine-2,3-dione], 41 nM. Regarding `O=C1C(=O)N(C2CCCC2)CCN1Cc1nnc(N2CCCC2)s1` [Example 310, 1-cyclopentyl-4-((5-(pyrrolidin-1-yl)-1,3,4-thiadiazol-2-yl)methyl)piperazine-2,3-dione], the EC50 turned out to be 41 nM. With `O=C1C(=O)N(C2CCCC2)CCN1Cc1nnc(N2CC[C@H](F)C2)s1` [Example 311, (S)-1-cyclopentyl-4-((5-(3-fluoropyrrolidin-1-yl)-1,3,4-thiadiazol-2-yl)methyl)piperazine-2,3-dione], the EC50 turned out to be 60 nM. Turning to `O=C1C(=O)N(C2CCCC2)CCN1Cc1nnc(N2CC[C@H](CF)C2)s1` [Example 312, (S)-1-cyclopentyl-4-((5-(3-(fluoromethyl)pyrrolidin-1-yl)-1,3,4-thiadiazol-2-yl)methyl)piperazine-2,3-dione], the EC50 stood at 69 nM. To `O=C1C(=O)N(C2CCCC2)CCN1Cc1nnc(N2CC3CC3C2)s1` (stereo not shown) [Example 313, 1-((5-(3-azabicyclo[3.1.0]hexan-3-yl)-1,3,4-thiadiazol-2-yl)methyl)-4-cyclopentylpiperazine-2,3-dione] belongs 47 nM; to `O=C1C(=O)N(C2CCCC2)CCN1Cc1ccc(N2CCCC2)nn1` [Example 314, 1-cyclopentyl-4-((6-(pyrrolidin-1-yl)pyridazin-3-yl)methyl)piperazine-2,3-dione], 43 nM.

As for `O=C1C(=O)N(C2CCCC2)CCN1Cc1ccc(N2CCCCC2)nn1` [Example 316, 1-cyclopentyl-4-((6-(piperidin-1-yl)pyridazin-3-yl)methyl)piperazine-2,3-dione], the half-maximal effective concentration (EC50) worked out at 32 nM. In the case of `O=C1C(=O)N(C2CCCC2)CCN1Cc1ccc(N2CCOCC2)nn1` [Example 317, 1-cyclopentyl-4-((6-morpholinopyridazin-3-yl)methyl)piperazine-2,3-dione] it was 45 nM; in that of `O=C1C(=O)N(C2CCCC2)CCN1Cc1ccc(N2CCC2)nn1` [Example 318, 1-((6-(azetidin-1-yl)pyridazin-3-yl)methyl)-4-cyclopentylpiperazine-2,3-dione], 36 nM; in that of `O=C1C(=O)N(C2CCCC2)CCN1Cc1ccc(N2CCC(F)(F)C2)nn1` [Example 319, 1-cyclopentyl-4-((6-(3,3-difluoropyrrolidin-1-yl)pyridazin-3-yl)methyl)piperazine-2,3-dione], 30 nM.

For `O=C1C(=O)N(C2CCCC2)CCN1Cc1ccc(N2CC3CC3C2)nn1` (stereo not shown) [Example 320, 1-((6-(3-azabicyclo[3.1.0]hexan-3-yl)pyridazin-3-yl)methyl)-4-cyclopentylpiperazine-2,3-dione], the concentration for a half-maximal effect (EC50) came out at 20 nM. To `O=C1C(=O)N(C2CCCC2)CCN1Cc1ccc(-n2ccnn2)nn1` [Example 321, 1-((6-(1H-1,2,3-triazol-1-yl)pyridazin-3-yl)methyl)-4-cyclopentylpiperazine-2,3-dione] belongs 21 nM. On to `O=C1C(=O)N(C2CCCC2)CCN1Cc1ccc(-n2nccn2)nn1` [Example 322, 1-((6-(2H-1,2,3-triazol-2-yl)pyridazin-3-yl)methyl)-4-cyclopentylpiperazine-2,3-dione], for which the concentration giving a half-maximal response (EC50) stood at 28 nM. To `O=C1C(=O)N(C2CCCC2)CCN1Cc1nnc(-n2nccn2)s1` [Example 323, 1-((5-(2H-1,2,3-triazol-2-yl)-1,3,4-thiadiazol-2-yl)methyl)-4-cyclopentylpiperazine-2,3-dione] belongs 157 nM; to `O=C1C(=O)N(C2CCC2)CCN1Cc1cnc(-n2nccn2)cn1` [Example 324, 1-((5-(2H-1,2,3-triazol-2-yl)pyrazin-2-yl)methyl)-4-cyclobutylpiperazine-2,3-dione], 53 nM; to `O=C1C(=O)N(C23CC(C2)C3)CCN1Cc1cnc(-n2nccn2)cn1` [Example 325, 1-((5-(2H-1,2,3-triazol-2-yl)pyrazin-2-yl)methyl)-4-(bicyclo[1.1.1]pentan-1-yl)piperazine-2,3-dione], 33 nM. In the case of `O=C1C(=O)N([C@H]2C[C@@H](c3ccccc3)C2)CCN1Cc1ccc(-n2nccn2)nn1` [Example 326, 1-((6-(2H-1,2,3-triazol-2-yl)pyridazin-3-yl)methyl)-4-((cis)-3-phenylcyclobutyl)piperazine-2,3-dione] it was 20 nM. In the case of `O=C1C(=O)N([C@H]2C[C@@H](c3ccccc3)C2)CCN1Cc1ccc(-n2ccnn2)nn1` [Example 327, 1-((6-(1H-1,2,3-triazol-1-yl)pyridazin-3-yl)methyl)-4-((cis)-3-phenylcyclobutyl)piperazine-2,3-dione] it was 16 nM. Turning to `O=c1c(=O)n(C2CCCC2)ccn1Cc1ccc(-n2ccnn2)nn1` [Example 328, 1-((6-(1H-1,2,3-triazol-1-yl)pyridazin-3-yl)methyl)-4-cyclopentyl-1,4-dihydropyrazine-2,3-dione], the EC50 stood at 7 nM. In the case of `O=c1c(=O)n(C2CCC2)ccn1Cc1ccc(-n2cccn2)nn1` [Example 329, 1-((6-(1H-pyrazol-1-yl)pyridazin-3-yl)methyl)-4-cyclobutyl-1,4-dihydropyrazine-2,3-dione] it was 15 nM; in that of `O=c1c(=O)n(C2CCC2)ccn1Cc1ccc(-n2ccnc2)nn1` [Example 330, 1-((6-(1H-imidazol-1-yl)pyridazin-3-yl)methyl)-4-cyclobutyl-1,4-dihydropyrazine-2,3-dione], 16 nM; in that of `O=c1c(=O)n([C@H]2C[C@H]3C[C@H]3C2)ccn1Cc1ccc(-n2ccnn2)nn1` [Example 331, 1-((6-(1H-1,2,3-triazol-1-yl)pyridazin-3-yl)methyl)-4-((cis)-bicyclo[3.1.0]hexan-3-yl)-1,4-dihydropyrazine-2,3-dione], 9 nM. For the compound `CC1(n2ccn(Cc3ccc(-n4nccn4)nn3)c(=O)c2=O)CC1` [Example 332, 1-((6-(2H-1,2,3-triazol-2-yl)pyridazin-3-yl)methyl)-4-(1-methylcyclopropyl)-1,4-dihydropyrazine-2,3-dione], the half-maximal effective concentration (EC50) was found to be 76 nM. In the case of `N#CC1(n2ccn(Cc3ccc(-n4nccn4)nn3)c(=O)c2=O)CC1` [Example 333, 1-(4-((6-(2H-1,2,3-triazol-2-yl)pyridazin-3-yl)methyl)-2,3-dioxo-3,4-dihydropyrazin-1(2H)-yl)cyclopropane-1-carbonitrile], the EC50 was 94 nM. To `CC1(n2ccn(Cc3ccc(-n4ccnn4)nn3)c(=O)c2=O)CC1` [Example 334, 1-((6-(1H-1,2,3-triazol-1-yl)pyridazin-3-yl)methyl)-4-(1-methylcyclopropyl)-1,4-dihydropyrazine-2,3-dione] belongs 29 nM; to `N#CC1(n2ccn(Cc3ccc(-n4ccnn4)nn3)c(=O)c2=O)CC1` [Example 335, 1-(4-((6-(1H-1,2,3-triazol-1-yl)pyridazin-3-yl)methyl)-2,3-dioxo-3,4-dihydropyrazin-1(2H)-yl)cyclopropane-1-carbonitrile], 90 nM. For the compound `O=C1C(=O)N(C2CCCC2)CCN1Cc1ccc(-n2nccn2)nc1` [Example 336, 1-((6-(2H-1,2,3-triazol-2-yl)pyridin-3-yl)methyl)-4-cyclopentylpiperazine-2,3-dione], the EC50 is 20 nM.
